Values after ≈ are worked out from the molar mass of the structure shown.
Experiments:
physchem = details: water
[1] = tested on: carrageenin-induced rat foot edema; assay: standard carrageenin-induced rat foot edema test, oral; type: in vivo; details: 32 mg./kg. oral (gavage), carrageenin-injected hind paw, 3 h after carrageenin, vs vehicle control, read-out: % Inhibition of edema formation
Description: In this test, anti-inflammatory activity is determined as the percent inhibition of edema formation in the hind paw of male albino rats (weighing 150-190 g.) in response to a sub-plantar injection of carrageenin. The carrageenin is injected as a 1% aqueous suspension (0.05 ml.) one hour after oral administration of the drug, which is normally given in the form of an aqueous solution. Edema formation is then assessed by measuring the volume of the injected paw initially as well as three hours after the carrageenin injection. The increase in volume three hours after carrageenin injection constitutes the individual response. Compounds are considered active if the difference in response between the drug-treated animals (six rats/group) and a control group receiving the vehicle alone is significant on comparison with the results afforded by a standard compound like phenylbutazone at 33 mg./kg., via the oral route of administration.
The following oxyethyl oxicam final products of Examples 1B, 1C and 5, respectively, were tested for anti-inflammatory activity in rats, using the standard rat foot edema test, according to the general procedure described by C. A. Winter et al., as first reported in the Proceedings of the Society for Experimental Biology and Medicine, Vol. 111, p. 544 (1962).

[2] = compared with piroxicam at an equivalent dose level and other NSAI agents

In the case of `COc1ccc2c(c1)c(CC(=O)O)c(C)n2C(=O)c1ccc(Cl)cc1` [Indomethacin], the solubility (physchem) is reported as 0.7 mg/mL (≈ 1.96 mM).
In the case of `CN1C(C(=O)Nc2cccc[n+]2CCO)=C([O-])c2ccccc2S1(=O)=O` [Product of Example 1C, N-[1-(2-hydroxyethyl)-2-pyridinium]-2-methyl-2H-1,2-benzothiazine-3-carboxamide 1,1-dioxide 4-enolate], the inhibition at 32 mg/kg [1] is reported as 16%.
`CC(C)Cc1ccc(C(C)C(=O)O)cc1` (centres unmarked) [Ibuprofen] gave a solubility (physchem) of 0.3 mg/mL (≈ 1.45 mM).
With `CN1C(C(=O)Nc2ccccn2)=C(O)c2ccccc2S1(=O)=O` [Piroxicam, 4-hydroxy-2-methyl-N-(2-pyridinyl)-2H-1,2-benzothiazine-3-carboxamide 1,1-dioxide] the solubility (physchem) was 26.5 mg/mL (≈ 80 mM).
For `CN1C(C(=O)Nc2ccccn2)=C(OCCO)c2ccccc2S1(=O)=O` [Product of Example 1B, 4-(2-hydroxyethyloxy)-2-methyl-N-(2-pyridinyl)-2H-1,2-benzothiazine-3-carboxamide 1,1-dioxide], the “oral absorption potential, comparison in words” value [2] was “highest oral absorption potential seen in the series of compounds tested”, the solubility (physchem) was 470 mg/mL (≈ 1250 mM) and the inhibition at 32 mg/kg [1] was 48%.
For `Cc1cccc(NC(=O)C2=C(OCCO)c3ccccc3S(=O)(=O)N2C)n1` [Product of Example 5, 4-(2-hydroxyethyloxy)-2-methyl-N-(6-methyl-2-pyridinyl)-2H-1,2-benzothiazine-3-carboxamide 1,1-dioxide], the inhibition at 32 mg/kg [1] was 13%.

From US5081118A, “Benzothiazine dioxide derivatives” (Pfizer Inc., priority 1990, dated 1992)
